From ChEMBL document CHEMBL3044799, “Biological activity of the succinate dehydrogenase inhibitor fluopyram against Botrytis cinerea and fungal baseline sensitivity” (Pest Manag Sci, 2012)
Converted amounts (≈) assume the structure as drawn.

Experiments:
Botrytis cinerea [1] = assay: Curative antifungal activity against Botryotinia fuckeliana inoculated in strawberry fruit assessed as disease severity measuring lesion diameter at 300 ug AI/ml applied 24 hr post-inoculation; format: functional
Botrytis cinerea [2] = assay: Curative antifungal activity against Botryotinia fuckeliana inoculated in strawberry fruit assessed as disease control efficacy at 300 ug AI/ml applied 48 hr post-inoculation relative to control; format: functional
Botrytis cinerea [3] = assay: Curative antifungal activity against Botryotinia fuckeliana inoculated in strawberry fruit assessed as disease severity measuring lesion diameter at 300 ug AI/ml applied 48 hr post-inoculation; format: functional
Botrytis cinerea [4] = assay: Antifungal activity against Botryotinia fuckeliana inoculated in strawberry fruit; format: functional, organism-based
Botrytis cinerea [5] = assay: Curative antifungal activity against Botryotinia fuckeliana inoculated in strawberry fruit assessed as disease control efficacy at 300 ug AI/ml applied 96 hr post-inoculation relative to control; format: functional
Botrytis cinerea [6] = assay: Protective antifungal activity against Botryotinia fuckeliana inoculated in fungicide-applied strawberry fruit assessed as disease severity measuring lesion diameter at 300 ug AI/ml applied 96 hr prior-inoculation; format: functional
Botrytis cinerea [7] = assay: Curative antifungal activity against Botryotinia fuckeliana inoculated in strawberry fruit assessed as disease severity measuring lesion diameter at 300 ug AI/ml applied 96 hr post-inoculation; format: functional
Botrytis cinerea [8] = assay: Curative antifungal activity against Botryotinia fuckeliana inoculated in strawberry fruit assessed as disease control efficacy at 300 ug AI/ml applied 24 hr post-inoculation relative to control; format: functional
Botrytis cinerea [9] = assay: Protective antifungal activity against Botryotinia fuckeliana inoculated in fungicide-applied strawberry fruit assessed as disease control efficacy at 300 ug AI/ml applied 48 hr prior inoculation relative to control; format: functional
Botrytis cinerea [10] = assay: Protective antifungal activity against Botryotinia fuckeliana inoculated in fungicide-applied strawberry fruit assessed as disease severity measuring lesion diameter at 300 ug AI/ml applied 48 hr prior inoculation; format: functional
Botrytis cinerea [11] = assay: Protective antifungal activity against Botryotinia fuckeliana inoculated in fungicide-applied strawberry fruit assessed as disease control efficacy at 300 ug AI/ml applied 96 hr prior-inoculation relative to control; format: functional
Botrytis cinerea [12] = assay: Protective antifungal activity against Botryotinia fuckeliana inoculated in fungicide-applied strawberry fruit assessed as disease control efficacy at 300 ug AI/ml applied 24 hr prior inoculation relative to control; format: functional
Botrytis cinerea [13] = assay: Protective antifungal activity against Botryotinia fuckeliana inoculated in fungicide-applied strawberry fruit assessed as disease severity measuring lesion diameter at 300 ug AI/ml applied 24 hr prior inoculation; format: functional
Botrytis cinerea [14] = assay: Curative antifungal activity against Botryotinia fuckeliana inoculated in strawberry fruit assessed as disease control efficacy at 100 ug AI/ml applied 24 hr post-inoculation relative to control; format: functional
Botrytis cinerea [15] = assay: Curative antifungal activity against Botryotinia fuckeliana inoculated in strawberry fruit assessed as disease severity measuring lesion diameter at 100 ug AI/ml applied 24 hr post-inoculation; format: functional
Botrytis cinerea [16] = assay: Curative antifungal activity against Botryotinia fuckeliana inoculated in strawberry fruit assessed as disease control efficacy at 100 ug AI/ml applied 48 hr post-inoculation relative to control; format: functional
Botrytis cinerea [17] = assay: Curative antifungal activity against Botryotinia fuckeliana inoculated in strawberry fruit assessed as disease severity measuring lesion diameter at 100 ug AI/ml applied 48 hr post-inoculation; format: functional
Botrytis cinerea [18] = assay: Curative antifungal activity against Botryotinia fuckeliana inoculated in strawberry fruit assessed as disease control efficacy at 100 ug AI/ml applied 96 hr post-inoculation relative to control; format: functional
Botrytis cinerea [19] = assay: Protective antifungal activity against Botryotinia fuckeliana inoculated in fungicide-applied strawberry fruit assessed as disease severity measuring lesion diameter at 100 ug AI/ml applied 96 hr prior-inoculation; format: functional
Botrytis cinerea [20] = assay: Curative antifungal activity against Botryotinia fuckeliana inoculated in strawberry fruit assessed as disease severity measuring lesion diameter at 100 ug AI/ml applied 96 hr post-inoculation; format: functional
Botrytis cinerea [21] = assay: Protective antifungal activity against Botryotinia fuckeliana inoculated in fungicide-applied strawberry fruit assessed as disease control efficacy at 100 ug AI/ml applied 48 hr prior inoculation relative to control; format: functional
Botrytis cinerea [22] = assay: Protective antifungal activity against Botryotinia fuckeliana inoculated in fungicide-applied strawberry fruit assessed as disease severity measuring lesion diameter at 100 ug AI/ml applied 48 hr prior inoculation; format: functional
Botrytis cinerea [23] = assay: Protective antifungal activity against Botryotinia fuckeliana inoculated in fungicide-applied strawberry fruit assessed as disease control efficacy at 100 ug AI/ml applied 96 hr prior-inoculation relative to control; format: functional
Botrytis cinerea [24] = assay: Protective antifungal activity against Botryotinia fuckeliana inoculated in fungicide-applied strawberry fruit assessed as disease control efficacy at 100 ug AI/ml applied 24 hr prior inoculation relative to control; format: functional
Botrytis cinerea [25] = assay: Protective antifungal activity against Botryotinia fuckeliana inoculated in fungicide-applied strawberry fruit assessed as disease severity measuring lesion diameter at 100 ug AI/ml applied 24 hr prior inoculation; format: functional

## O=C(Nc1ccccc1-c1ccc(Cl)cc1)c1cccnc1Cl [BOSCALID]
Botrytis cinerea [1]
  Activity: 4.7 mm
Botrytis cinerea [2]
  Efficacy: 94.1%
Botrytis cinerea [3]
  Activity: 1.1 mm
Botrytis cinerea [4]
  EC50: 0.09 µg/mL (≈ 0.262 µM)
Botrytis cinerea [5]
  Efficacy: 29.8%
Botrytis cinerea [6]
  Activity: 3.4 mm
Botrytis cinerea [7]
  Activity: 13.2 mm
Botrytis cinerea [8]
  Efficacy: 74.7%
Botrytis cinerea [9]
  Efficacy: 84%
Botrytis cinerea [10]
  Activity: 3 mm
Botrytis cinerea [11]
  Efficacy: 81.8%
Botrytis cinerea [12]
  Efficacy: 91.7%
Botrytis cinerea [13]
  Activity: 1.5 mm

## COC(=O)Nc1nc2ccccc2[nH]1 [CARBENDAZIM]
Botrytis cinerea [4]
  EC50: 0.05 µg/mL (≈ 0.262 µM)

## Cc1cc(C2CC2)nc(Nc2ccccc2)n1 [CYPRODINIL]
Botrytis cinerea [4]
  EC50: 0.007 µg/mL (≈ 0.0311 µM)

## CC1(C(=O)Nc2ccc(O)c(Cl)c2Cl)CCCCC1 [FENHEXAMID]
Botrytis cinerea [14]
  Efficacy: 61.4%
Botrytis cinerea [15]
  Activity: 7.2 mm
Botrytis cinerea [16]
  Efficacy: 89.2%
Botrytis cinerea [17]
  Activity: 2 mm
Botrytis cinerea [4]
  EC50: 0.04 µg/mL (≈ 0.132 µM)
Botrytis cinerea [18]
  Efficacy: 23.2%
Botrytis cinerea [19]
  Activity: 1 mm
Botrytis cinerea [20]
  Activity: 14.5 mm
Botrytis cinerea [21]
  Efficacy: 97.6%
Botrytis cinerea [22]
  Activity: 0.4 mm
Botrytis cinerea [23]
  Efficacy: 94.4%
Botrytis cinerea [24]
  Efficacy: 99.2%
Botrytis cinerea [25]
  Activity: 0.1 mm

## N#Cc1c[nH]cc1-c1cccc2c1OC(F)(F)O2 [FLUDIOXONIL]
Botrytis cinerea [4]
  EC50: 0.003 µg/mL (≈ 0.0121 µM)

## CC(C)NC(=O)N1CC(=O)N(c2cc(Cl)cc(Cl)c2)C1=O [IPRODIONE]
Botrytis cinerea [4]
  EC50: 0.25 µg/mL (≈ 0.757 µM)

## COC(=O)N(OC)c1ccccc1COc1ccn(-c2ccc(Cl)cc2)n1 [PYRACLOSTROBIN]
Botrytis cinerea [4]
  EC50: 0.01 µg/mL (≈ 0.0258 µM)
